Read-outs that look alike come from different tables or passages of the source. Marks after values point to notes of the source that are not given here.
How the values were obtained:
[1] = cited from earlier work; for QY / Brightness (fluorescence brightness = ε × QY): PBS pH 7.4; for QY: data from reference; for Brightness (fluorescence brightness = ε × QY) / Quantum yield: reported data; for Quantum yield: pH 7.4 PBS
[2] = meso linkage is not cleaved by biological amines or thiols; cited from earlier work
[3] = PBS pH 7.4, cited from earlier work; for ε: reported data; for λabs max / λem max: spectral data from reference
[4] = known from literature; cited from earlier work
[5] = Dye self-aggregation by absorption/excitation spectra; type: physicochemical; conditions: in water / aqueous media, absorption spectra
Excerpt: Self-aggregation of heptamethine cyanine dyes is readily indicated by conversion of monomer absorption bands into aggregate bands, in this case blue-shifted H-aggregates.

[6] = test system: integrin positive A549 cells; assay: Cell uptake by fluorescence microscopy; type: cell-based, human
Method: FIG. 19. […] The two targeted dyes contain a cyclic peptide cRGDfK sequence for targeting the overexpressed cell surface integrin receptors. The blocking experiments added 100 μM of free cRGDfK prior to the incubation with RGD probes. NIR heptamethine fluorescence is shown in green, and Hoechst nuclear stain is shown in blue. Scale bar=30 μm. (c) Quantification of intracellular mean fluorescence intensities as a measure of NIR dye internalization (6 micrographs per condition and 3 replicates). * indicates p<0.05, and ** p<0.01.
Cell Microscopy. For fluorescence microscopy, A549 cells were seeded and grown to 70% confluency on an 8-well chambered coverglass (Lab-Tek, Nunc, USA). […] For blocking, 100 μM of cRGDfK was added to the cells, 10 min prior to dye treatment and remained present during NIR dye incubation. After dye incubation, the cells were washed several times with PBS, fixed with 4% cold paraformaldehyde for 20 min at room temperature and washed again with PBS. […] Next, a triangle threshold was employed and used to calculate the average mean pixel intensity (MPI) where overall averages and SEM were calculated and plotted in GraphPad Prism. A total of 6 micrographs were evaluated per condition and each experiment was conducted in triplicate.

[7] = Absorption and emission spectral properties of dyes; type: physicochemical; conditions: for ε: monomer band
Method: General. Reagents and solvents were purchased from Sigma-Aldrich, VWR, Oakwood, Thermo Fisher and TCI and used without further purification unless stated otherwise. Anhydrous tetrahydrofuran was distilled with metal sodium and benzophenone. Column chromatography was performed using Biotage SNAP Ultra columns. ^1H, ^13C and ROESY NMR spectra were recorded on a Bruker 500 NMR spectrometer. Chemical shifts are presented in ppm and referenced by residual solvent peak. High-resolution mass spectrometry (HRMS) was performed using a time-of-flight (TOF) analyzer with electrospray ionization (ESI). Absorption spectra were recorded on an Evolution 201 UV/vis spectrometer with Thermo Insight software. Fluorescence spectra were collected on a Horiba Fluoromax-4 fluorometer with FluoroEssence software. Analyte solutions were prepared in HPLC grade water (Sigma-Aldrich), phosphate buffered saline (Thermo Fisher), fetal bovine serum (Sigma-Aldrich) or buffer B (575 mM NaCl, 37.5 mM NaH2PO4 and 0.75 mM EDTA in water, pH 7.5). All absorption and fluorescence spectra were collected using quartz cuvettes (1 mL, 1 cm path length; for emission and excitation spectra, slit width=3 nm).

[8] = Quantum yield and fluorescence brightness relative to UL766; type: physicochemical; conditions: for Brightness (fluorescence brightness = ε × QY): PBS pH 7.4, error ±15%; for Quantum yield: pH 7.4 PBS, relative to UL766, error ±10%
Excerpt: The fluorescence spectrum of each solution was obtained with excitation at 730 nm, and the integrated area was used in the quantum yield calculation by the following equation:
[formula] where η is the refractive index of the solvent, I is the integrated fluorescence intensity, and A is the absorbance at a chosen wavelength. […]

[9] = Photostability, Xenon lamp irradiation; type: physicochemical
Method: FIG. 2. Two separate photostability studies. (a) Lamp irradiation: Four separate cuvettes, each containing 1 μM dye in PBS buffer, pH 7.4, were irradiated by a 150 W Xenon lamp with a 620 nm long-pass filter. The plot of normalized dye absorbance versus time was fit to a one-phase exponential decay. […] The length scale bar on each NIR fluorescence image is 1 cm.
Photostability Measurements. Lamp Irradiation: A solution of dye (1 μM) in PBS buffer, pH 7.4, was placed in a 1×1×4 cm^3 cuvette that was exposed to air and irradiated at a distance of 3 cm by a 150 W Xenon lamp with a 620 nm long-pass filter. An absorbance spectrum was recorded every 10 min. The normalized maximum absorbance of dye was plotted against time and fitted to a non-linear regression, one-phase exponential decay. […] A 1.5 mL vial containing the solution was irradiated at a distance of 3 cm by a 150 W Xenon lamp with a 620 nm long-pass filter.

[10] = Mouse biodistribution in normal mice; type: in vivo, SKH1 hairless mice; conditions: 10 nmol
Excerpt: FIG. 20. a) Representative whole-body NIR fluorescence images of living SKH1 hairless mice at 0, 1, and 2 hr after intravenous injection of either ICG or s775z (10 nmol). b) In vivo biodistribution of s775z and ICG in normal mice. The SKH1 hairless mice (N=4) received an intravenous injection of ICG or s775z (10 nmol) and were sacrificed after 2 hr. The mean pixel intensity (MPI) for each excised organ is relative to the MPI for thigh muscle from the same animal; error bars indicate ±SEM. * indicates p<0.05. Note: the y-axis is truncated.
Mouse Biodistribution. All animal experiments were conducted under protocols that were approved by the Notre Dame Institutional Animal Care and Use Committee. Female SKH1 hairless mice (N=4) were divided into two cohorts and received a retro-orbital injection of ICG or s775z (50 μL, 10 nmol). […] The mice were then injected with dye and imaged at 0, 1, and 2 hr. At 2 hr, the mice were anesthetized, sacrificed via cervical dislocation, and blood was collected from the heart. The lower cavity of the mice was then exposed and imaged. […] The images were pseduocolored “fire,” and an arbitrary maximum fluorescence value was chosen. […] The amount of dye was then quantified by manually drawing a region of interest around each organ. The MPI of each organ was measured and divided by the MPI for thigh muscle from the same animal.

[11] = test system: subcutaneous tumor (human A549 cells); assay: Mouse tumor imaging; type: in vivo, nude mice; conditions: A549 tumor mice, 10 nmol
Method: […]. The fluorescence mean pixel intensity (MPI) of two regions of interest (equal sizes) on the fluorescent images (tumor or background site on the opposite flank), at different post-injection time points, were measured using ImageJ2 software and used to calculate values for Tumor MPI, and Tumor-to-Background Ratio. * indicates p<0.05, ** p<0.01, and *** p<0.001.
Mouse Tumor Imaging. All animal experiments were conducted under protocols that were approved by the Notre Dame Institutional Animal Care and Use Committee. Female Foxn1 nude mice (N=8) were inoculated with A549 cells (1×10^6) in Corning Matrigel matrix on the right rear flank. […]. The mice were then injected with dye and imaged at 0, 0.5, 1, 2, and 3 hr. At 3 hr, the mice were anesthetized and sacrificed via cervical dislocation, and blood was collected from the heart. To simulate a surgery, the mice were imaged prior to surgery, the fluorescent tumor was fully removed, and the mice were imaged again. […] For image processing, the whole body and tumor images were pseudocolored “fire,” and an arbitrary maximum fluorescence value was chosen. Biodistribution analysis was performed by importing NIR fluorescence images of the excised organs from each mouse into ImageJ2 and the amount of dye in each organ was quantified by manually drawing a region of interest around each organ and determining the fluorescence MPI. […]

Structure (SMILES) | QY [1] | Brightness (fluorescence brightness = ε × QY) [1] | Quantum yield [1] [%] | Stable to nucleophiles [2] | ε [3] | λabs max [3] [nm] | λem max [3] [nm] | Change in serum under very similar conditions [4] | ε ([7]; PBS pH 7.4, room temperature) | Brightness (fluorescence brightness = ε × QY) [8] | Quantum yield [8] | other results
CC1(C)C(/C=C/C2=C(Oc3ccc(S(=O)(=O)O)cc3)C(=C/C=C3/N(CCCCS(=O)(=O)O)c4ccc(S(=O)(=O)[O-])cc4C3(C)C)/CCC2)=[N+](CCCCCC(=O)O)c2ccc(S(=O)(=O)O)cc21 [CW800] | 0.090 | 22,000 | 9.0 | No | 242,000 M^−1cm^−1 | 775 | 796 | degradation |  |  |  | 
CC1(C)C(/C=C/C2=C(c3ccc(C(=O)NCCCC[C@@H]4NC(=O)[C@@H](Cc5ccccc5)NC(=O)[C@H](CC(=O)O)NC(=O)CNC(=O)[C@H](CCCNC(=N)N)NC4=O)cc3)C(=C/C=C3/N(CCC[N+](C)(C)C)c4ccc(S(=O)(=O)O)cc4C3(C)C)/CCC2)=[N+](CCC[N+](C)(C)C)c2ccc(S(=O)(=O)O)cc21 [Dye 756z-RGD] |  |  |  |  |  |  |  |  | 147,000 M^−1cm^−1 | 16,000 | 10.7^[b] % | Aggregation state [5]: concentration-dependent mixture of fluorescent monomer and non-fluorescent H-aggregate; Cell uptake with blocking ([6]; A549 cells pre-incubated with excess (100 μM) cRGDfK): successfully blocked; Cell uptake ([6]; A549 cells, 10 μM dye, 1 hr, 37° C.): much higher cell uptake; SS (Stokes shift) ([7]; PBS pH 7.4): 16 nm; λabs max, aggregate (a) band ([7]; PBS pH 7.4, room temperature): 682 (a)/ nm; λem max ([7]; PBS pH 7.4, room temperature): 773 nm; λabs max ([7]; PBS pH 7.4, room temperature, monomer (m) band where an aggregate band is also listed): 757 (m) nm
CC1(C)C(/C=C/C=C/C=C/C=C2\N(CCCCS(=O)(=O)O)c3ccc4ccccc4c3C2(C)C)=[N+](CCCCS(=O)(=O)[O-])c2ccc3ccccc3c21 [ICG, Indocyanine Green] |  |  |  |  |  |  |  |  | 71,000 M^−1cm^−1 | 1,600 | 2.3^[b] % | half-life at 1 μM ([9]; PBS buffer in a cuvette exposed to air, pH 7.4 PBS, 150 W Xenon lamp irradiation, 620 nm long-pass filter, 23° C., 1 μM dye, read-out: t1/2, half-life of first-order decay (converted)): 13.3 min; k, rate constant of first-order decay ([9]; pH 7.4 PBS, 150 W Xenon lamp irradiation, 620 nm long-pass filter, 23° C., 1 μM dye): 0.00087 s⁻¹; Order of photostabilities ([9]; separate cuvettes, dye in PBS, Xenon lamp >620 nm): s775z>756z>UL766>ICG; Clearance from bloodstream ([10]; retro-orbital injection, live imaging over 2 hr): quickly cleared from the mouse bloodstream; Clearance pathway / biodistribution ([10]; sacrificed after 2 hours): accumulated in the intestines and liver
CC1(C)C(/C=C/C2=C(Oc3ccc(CCC(=O)O)cc3)C(=C/C=C3/N(CCC[N+](C)(C)C)c4ccc(S(=O)(=O)O)cc4C3(C)C)/CCC2)=[N+](CCC[N+](C)(C)C)c2ccc(S(=O)(=O)O)cc21 [ZW800-1] | 0.135 | 33,000 | 13.5 | No | 246,000 M^−1cm^−1 | 770 | 788 | degradation |  |  |  | 
COCCOCCOCCOCc1cn(Cc2cc(C(=O)NCCCC[C@@H]3NC(=O)[C@@H](Cc4ccccc4)NC(=O)[C@H](CC(=O)O)NC(=O)CNC(=O)[C@H](CCCNC(=N)N)NC3=O)cc(Cn3cc(COCCOCCOCCOC)nn3)c2C(=C\C=C\C2=[N+](CCC[N+](C)(C)C)c3ccc(S(=O)(=O)O)cc3C2(C)C)/C=C/C=C2/N(CCC[N+](C)(C)C)c3ccc(S(=O)(=O)O)cc3C2(C)C)nn1 [s775z-RGD] |  |  |  |  |  |  |  |  |  |  |  | Clearance and background retention [11]: rapid, near-exclusive renal clearance from the bloodstream

— patent US12466814B2, “Sterically shielded heptamethine cyanine dyes” (UNIVERSITY OF NOTRE DAME DU LAC, priority 2020, dated 2025)
